Reference: PMC9266914, “Broad Spectrum Functional Activity of Structurally Related Monoanionic Au(III) Bis(Dithiolene) Complexes” (International Journal of Molecular Sciences, 2022)
Read-outs that look alike come from different tables or passages of the source. Marks after values point to notes of the source that are not given here.

Tests used:
[1] = test system: A2780 ovarian cancer cells; assay: MTT cytotoxicity assay in A2780 (cisplatin sensitive) ovarian cancer cells; format: cell-based, human
Procedure: (§1) Cells were exposed to increasing concentrations of the complexes (0.01–100 μM) for 24 and/or 48 h, at 37 °C. The IC50 values were calculated from dose–response curves using the colorimetric MTT assay. […] Most complexes presented a similar cytotoxicity profile compared to Auranofin, but higher activity compared to Cisplatin, and, most importantly, were active in the Cisplatin-resistant OVCAR8 cells (Table 2).
(§2) The cytotoxic activity of the complexes was evaluated in the A2780 (cisplatin sensitive) (Sigma-Aldrich) and OVCAR8 (cisplatin resistant) (ATCC) ovarian cancer cells. Cells were grown in RPMI-1640 medium (Gibco, Thermo Fisher) supplemented with 10% fetal bovine serum (FBS) and were maintained at 37 °C in a humidified atmosphere with 5% CO2. The complexes were initially dissolved in DMSO and then in culture medium to prepare serial dilutions in the range 10^−9–10^−4 M. After 24 and/or 48 h incubation the cellular viability was measured by the colorimetric MTT assay, as previously described.

[2] = test system: OVCAR8 ovarian cancer cells; assay: MTT cytotoxicity assay in OVCAR8 (cisplatin resistant) ovarian cancer cells; format: cell-based, human; conditions: 48 h incubation
Procedure: as §1, §2

[3] = test system: P. berghei hepatic stage; assay: In vitro activity against the hepatic stage of P. berghei infection (luciferase, Huh7 cells); format: cell-based, Plasmodium berghei; conditions: for IC50: hepatic stage, Huh7 cells, 46 hpi
Procedure: (§3) The in vitro liver stage activity of gold complexes was assessed against P. berghei-infected Huh7 cells, as previously described. Briefly, Huh7 cells were cultured in RPMI-1640 medium supplemented with 10% (v/v) fetal bovine serum, 1% (v/v) penicillin/streptomycin, 1% (v/v) glutamine, 1% (v/v) non-essential amino acids and 10 mM HEPES. On the day prior to infection, Huh7 cells were seeded in 96-well plates at a density of approximately 3.1 × 10^4 cell/cm^2 and incubated at 37 °C, 5% CO2. Stock solutions of the complexes were initially prepared in DMSO and serially diluted in infection medium, i.e., culture medium supplemented with gentamicin (50 µg/mL) and fungizone (0.8 µg/mL), to obtain the test concentrations. As a control, DMSO was diluted in infection medium to a percentage that equals that of the highest compound concentrations tested. These dilutions were added to the cells in triplicates and incubated for 1 h at 37 °C, 5% CO2, after which 1 × 10^4 luciferase-expressing P. berghei sporozoites were added to each well. Plates were centrifuged at 1800× g for 5 min at room temperature and incubated for the duration of the assay. At 46 h post-infection (hpi), the impact of each compound concentration on cell viability was assessed by the Alamar Blue (Invitrogen, Buckinghamshire, UK) assay, according to the manufacturer’s recommendations. Infection was next assessed by bioluminescence, employing the Firefly Luciferase Assay Kit 2.0 (Biotium, Fremont, CA, USA), according to the manufacturer’s recommendations. For IC50 determination, nonlinear regression analysis was employed to fit the normalized results of the dose–response curves, using GraphPad Prism 8 (GraphPad software, La Jolla, CA, USA).

[4] = test system: S. aureus Newman; assay: MIC determination, S. aureus; format: cell-based, Staphylococcus aureus; conditions: MH broth, 22 h, 37 °C
Description: (§4) The bacterial strains Escherichia coli ATCC25922 and Staphylococcus aureus Newman were used in this work and maintained in Lennox Broth (LB) solid medium, composed of 10 g/L tryptone, 5 g/L yeast extract, 5 g/L NaCl and 20 g/L agar. The fungal strains Candida albicans SC5134 and C. glabrata CBS138 were used in this work and maintained in YPD solid medium, composed of 20 g/L glucose, 20 g/L peptone, 10 g/L yeast extract and 15 g/L agar. The strains were isolated from human infections.
(§5) The antimicrobial activity of the complexes towards the bacterial and fungal strains was assessed by the determination of the Minimal Inhibitory Concentration (MIC) of each complex towards the indicated microbial strains, based on standard methods, and as previously described. […] Serial 1:2 dilutions of stock solutions were prepared for each complex in Mueller–Hinton (MH) broth (Fluka Analytical) or RPMI-1640 medium (Sigma) supplemented with 20 g/L glucose and buffered with 0.165 M morpholinepropanesulphonic acid (RPMIG) to pH 7.0. Solutions prepared with MH were used for testing bacteria, while those prepared with RPMIG were used for testing fungi. For antibacterial activity assays, the final concentrations ranged from 250 to 0.24 μg/mL (when stock solution final concentration was 10 mg/mL), 125 μg/mL to 0.12 μg/mL (when stock solution final concentration was 5 mg/mL) and 62.5 to 0.06 μg/mL (when stock solution final concentration was 2.5 mg/mL). For antifungal assays, the final concentrations ranged from 125 μg/mL to 0.12 μg/mL (when stock solution final concentration was 10 mg/mL), 62.5 to 0.06 μg/mL (when stock solution final concentration was 5 mg/mL) and 31.25 to 0.03 μg/mL (when stock solution final concentration was 2.5 mg/mL). Then, 100 μL aliquots of adequately diluted bacterial suspensions of S. aureus Newman or E. coli ATCC 25922 were mixed with the MH serially diluted complexes aliquots to obtain 5 × 10^5 CFU/mL. In the case of fungi, cultures were diluted to obtain a final optical density of 0.025, measured at 530 nm (OD530). Bacterial suspensions were prepared from cultures grown for 5 h in MH broth at 37 °C and 250 rev·min^−1 and adequately diluted with fresh MH medium, while fungal suspensions were prepared from overnight cultures grown in YPD broth at 30 °C and 250 rev.min^−1 and diluted in buffered RPMIG. After 22 h of incubation at 37 °C (bacteria) or 24 h at 35 °C (fungi), the wells’ content was resuspended by pipetting and the OD640 (bacteria) or OD530 (fungi) were measured in a SPECTROstar Nano microplate reader (BMG Labtech).
(§6) At least three independent experiments were performed in duplicate for each complex under study. […] Positive (no complex) and negative controls (no inoculum) were performed for each experiment. The effect of 5% (V/V) DMSO on microbial growth was also assessed.

[5] = test system: E. coli ATCC25922; assay: MIC determination, E. coli; format: cell-based, Escherichia coli; conditions: MH broth, 22 h, 37 °C
Description: as §4, §5, §6

[6] = test system: C. albicans SC5134; assay: MIC determination, C. albicans; format: cell-based, Candida albicans; conditions: RPMIG, 24 h, 35 °C
Description: as §4, §5, §6

[7] = test system: C. glabrata CBS138; assay: MIC determination, C. glabrata; format: cell-based, Candida glabrata; conditions: RPMIG, 24 h, 35 °C
Description: as §4, §5, §6

[8] = test system: Huh7 cells; assay: Cell viability (cell confluency, Alamar Blue) of P. berghei-infected Huh7 cells; format: cell-based; conditions: 5 µM, in words
Procedure: as §3

[9] = 24 h incubation, read-out: IC50 A2780, 24 h
[10] = 48 h incubation, read-out: IC50 A2780, 48 h

| SMILES | IC50 [1, 9] [µM] | IC50 [1, 10] [µM] | IC50 [2] [µM] | IC50 [3] [µM] | MIC S. aureus Newman [4] [µg/mL] | MIC E. coli ATCC25922 [5] [µg/mL] | MIC C. albicans SC5134 [6] | MIC C. glabrata CBS138 [7] [µg/mL] | toxicity seen as lower cell confluency [8] | activity against hepatic stage of P. berghei (positive control) ([3]; in words) | MIC C. albicans SC5134 ([6]; listed as [ N ][AuSPr(=S)]) [µg/mL] |
| --- | --- | --- | --- | --- | --- | --- | --- | --- | --- | --- | --- |
| CCCn1c2c(sc1=S)[Se][Au-]1([Se]c3sc(=S)n(CCC)c3[Se]1)[Se]2.c1ccc([P+](c2ccccc2)(c2ccccc2)c2ccccc2)cc1 [[P][AuSePr(=S)]] | 0.91 ± 0.4 | 0.29 ± 0.1 | 1.57 ± 0.43 | 0.544 ± 0.0194 | >250 | >250 | >125 µg/mL | >125 |  |  |  |
| CCCn1c2c(sc1=[Se])[S][Au-]1([S]c3sc(=[Se])n(CCC)c3[S]1)[S]2.c1ccc([P+](c2ccccc2)(c2ccccc2)c2ccccc2)cc1 [[P][AuSPr(=Se)]] | 0.62 ± 0.19 | 0.55 ± 0.41 | 0.8 ± 0.18 | 0.6439 ± 0.00134 | >125 | >125 | 62.5 µg/mL | >62.5 | some degree of toxicity |  |  |
| CC(C)n1c2c(sc1=S)[Se][Au-]1([Se]c3sc(=S)n(C(C)C)c3[Se]1)[Se]2.CC[N+](CC)(CC)CC [[N][AuSeiPr(=S)]] | 30.3 ± 3.39 | 8.27 ± 1.12 | 8.76 ± 0.69 |  | 1.5 ± 0.1 | >250 | >125 µg/mL | 2.1 ± 0.1 |  |  |  |
| CC[N+](CC)(CC)CC.Cn1c2c(sc1=S)[S][Au-]1([S]c3sc(=S)n(C)c3[S]1)[S]2 [[N][AuSMe(=S)]] | 1.63 ± 0.4 | 0.11 | 2.44 ± 0.78 | 0.429 ± 0.0396 | 4.4 ± 0.2 | >250 | >62.5 *** µg/mL | 2.9 ± 0.9 | some degree of toxicity |  |  |
| O=C1C(O)=C([C@H]2CC[C@H](c3ccc(Cl)cc3)CC2)C(=O)c2ccccc21 [Atovaquone, reference compound] |  |  |  |  |  |  |  |  |  | nanomolar-ranged activity |  |
| CCn1c2c(sc1=[Se])[Se][Au-]1([Se]c3sc(=[Se])n(CC)c3[Se]1)[Se]2.c1ccc([P+](c2ccccc2)(c2ccccc2)c2ccccc2)cc1 [[P][AuSeEt(=Se)]] | 3.96 ± 2.21 | 0.64 ± 0.19 | 2.42 ± 1.52 | 0.518 ± 0.246 | >125 | >125 | >62.5 µg/mL | >62.5 |  |  |  |
| CCCn1c2c(sc1=S)[S][Au-]1([S]c3sc(=S)n(CCC)c3[S]1)[S]2.CC[N+](CC)(CC)CC [[N][AuSPr(=S)]] | 2.93 ± 0.81 | 2.28 ± 0.69 | 2.28 ± 0.19 |  | 1.1 ± 0.2 | >250 | 3.1 µg/mL | 1.6 ± 0.8 |  |  | 3.1 ± 0.5 |
| CC[N+](CC)(CC)CC.CCn1c2c(sc1=[Se])[Se][Au-]1([Se]c3sc(=[Se])n(CC)c3[Se]1)[Se]2 [[N][AuSeEt(=Se)]] | 26.9 ± 3.02 | 4.84 ± 1.6 | 13.9 ± 1.61 |  | >62.5 | >62.5 | >31.25 µg/mL | 1.8 ± 0.5 |  |  |  |
| CC[N+](CC)(CC)CC.CCn1c2c(sc1=S)[Se][Au-]1([Se]c3sc(=S)n(CC)c3[Se]1)[Se]2 [[N][AuSeEt(=S)]] | 19.2 ± 2.01 | 4.32 ± 1.17 | 29.4 ± 4.2 |  | 5.5 ± 0.3 | >125 | >62.5 µg/mL | 1.6 ± 0.8 |  |  |  |
